# Results from patent publication US20210059927A1, “COSMETIC COMPOSITION COMPRISING DENDROBIUM CANDIDUM FLOWER EXTRACT” (LG HOUSEHOLD & HEALTH CARE LTD., priority 2017, published 2021).
# Legend:
# [1] = test system: RAW264.7 cell line; assay: Inhibitory effect of nitric oxide (NO) production, GRIESS method, LPS-stimulated; format: cell-based, mouse; conditions: positive control 20 ppm, LPS 1 ppm, 24 hours, relative to LPS-only group; n=4
# Protocol: In order to confirm the anti-inflammatory effect and skin trouble improvement effect of each extract prepared in Preparation Examples 1 to 9, NO production inhibitory effect was measured by the GRIESS method using RAW264.7 cell line (ATCC number: CRL-2278).
# Specifically, RAW264.7 cells, which are macrophages of mice, were subcultured several times, and cultured for 24 hours after being placed in a 24-well plate such that 3×10^5 cells were placed in one well. After exchanging with a cell medium containing the sample at a final concentration of 0.1%, an untreated medium was used as a negative group and for a positive control group, 20 ppm of L-NG-monomethylarginine (L-NMMA) was used, which is a NO-production inhibitor. 1 ppm of lipopolysaccharide was treated as a stimulus source and cultured for 24 hours. The supernatant was transferred to a 96-well plate by 100 μL, and the GRIESS solution was added by 100 μL to react at room temperature for 10 minutes, and the NO inhibitory effect was determined by measuring the absorbance at 540 nm.
# The NO production inhibitory rate (%) was calculated as a relative ratio of the amount of reduced NO compared to the LPS-only treatment group, and the results are shown in Table 3 below.
# [2] = test system: B-16 mouse melanoma cell; assay: Inhibitory effect of melanin production at cellular level; format: cell-based; conditions: positive control 100 ppm, 3 days, relative to negative control; n=4
# Protocol: In order to confirm the brightening effect through the inhibition of melanin production of each extract prepared in Preparation Examples 1 to 9, the samples obtained in Preparation Examples 1 to 9 were added to a culture medium of mouse melanoma cells (B-16 mouse melanoma cell) to measure the total amount of melanin (Lotan R. et al., Cancer Res. 40:3345-3350, 1980). Prior to measuring the total amount of melanin, brightening evaluation was performed at non-toxic concentrations by first evaluating the toxicity of mouse melanoma cells. […]
# Thereafter, the cells were trypsin-treated, detached from the culture vessel, and centrifuged, and melanin was extracted. The detached cells were added with 1 mL of sodium hydroxide solution (1N concentration), boiled for 10 minutes to dissolve the melanin, and the absorbance was measured at 405 nm using a spectrophotometer to measure the amount of melanin produced.
# The amount of melanin was measured by the absorbance of the unit cell count (1×10^6 cells), and the melanin production inhibition rate (%) was calculated as the total amount of melanin relative to the negative control group, and the results are shown in Table 2 below.
# [3] = test system: type 1 collagen in human-derived fibroblasts; assay: Synthesis promotion effect of type 1 collagen in human-derived fibroblasts (PICP EIA kit); format: cell-based; conditions: positive control 10 ng/ml, relative to negative control; n=4
# Protocol: In order to confirm the wrinkle improvement effect through promoting the synthesis of type 1 collagen of each extract prepared in Preparation Examples 1 to 9, collagen synthesis rate was measured by adding the samples obtained in Preparation Examples 1 to 9 to the culture solution of human-derived fibroblasts. The synthesis of collagen was quantified using a PICP EIA kit (Procollagen Type I C-Peptide Enzyme ImmunoAssay KIT). After adding the sample to a culture medium of fibroblasts (DMEM medium) at a final concentration of 0.1% and culturing for 48 hours, cultures were taken and the degree of collagen synthesis of type 1 collagen at each concentration was measured at 450 nm using a spectrophotometer with PICP EIA kit.
# For comparison of the effects, the degree of collagen synthesis was measured in the same manner with respect to a culture medium (negative control group) of untreated fibroblasts and the sample (positive control) added with TGF-β to a final concentration of 10 ng/mL.
# Collagen synthesis rate (%) was calculated as the ratio of the collagen production amount relative to the negative control, and the results are shown in Table 1 below.
# [4] = test system: Aquaporin 3; assay: Moisturizing gene expression by qRT-PCR in HaCaT: AQP3; format: cell-based, human; conditions: mRNA, positive control 10 ng/ml, negative control = 1.00, n=4
# Protocol: In order to confirm the skin moisturizing effect of each extract prepared in Preparation Examples 1 to 9, gene expression related to moisturizing was measured using the cells cultured as below.
# Human keratinocytes (HaCaT) were in a 6-hole cell culture plate 2×10^5 each, and then cultured using Dulbecco's Modified Eagle's medium (DMEM, Gibco, Co.) including fetal bovine serum (FBS) and antibiotics for 24 hours.
# After culturing the cells, it was replaced with DMEM, High Glucose, no Glutamine, no calcium (Gibco, USA), and then the samples obtained in Preparation Examples 1 to 9 were treated at a concentration of 0.1% for 24 hours. […]
# 2.5 μg of RNA was quantified and reverse transcription was performed using cDNA synthesis kit (PhileKorea, Korea). […] Quantitative real time PCR (qRT-). […]
# The experimental results obtained by qRT-PCT were shown by calculating with the ΔΔCT method (Livak K J, Schmittgen T D: Analysis of relative gene expression data using real-time quantitative PCR and the 2(-Delta Delta C(T)) Method, Methods, 25, 402-408(2001)) based on housekeeping gene and glyceraldehyde-3-phosphate dehydrogenase (GAPDH). To compare effects, moisturizing gene expression was measured in the same manner for a negative control group without treating samples and a positive control group treated with EGF 10 ng/ml and Ca^2+3 mM, respectively. […]
molecule,measurement,setting,value
"CNC(=N)NCCC[C@H](N)C(=O)O [L-NMMA, L-NG-monomethylarginine]",NO production inhibitory rate (%),[1],51.85%
OC[C@H]1O[C@@H](Oc2ccc(O)cc2)[C@H](O)[C@@H](O)[C@@H]1O [Albutin],Melanin production inhibition rate (%),[2],33.13%
TGF-β,Collagen synthesis rate (%),[3],15.21%
"EGF: Positive control for moisturizing gene expression, 10 ng/ml",Aquaporin 3 (fold),[4],3.27 fold
